{"source": "patent US20250110113A1", "about": "“HUMAN ORGAN-ON-A-CHIP HAVING REVERSE MICRO-WEIR STRUCTURE AND USES THEREOF” (HUMANASE, priority 2022, published 2025)", "type_in_all_cases": "cell-based, human", "key": {"[1]": {"system": "breast cancer cells (MCF-7)", "experiment": "Organ-on-a-chip containing breast cancer cells, doxorubicin treatment, optical microscope", "conditions": "100 μM doxorubicin in media supply chamber; 24 hours after treatment; MCF-7 cultured 2 days on chip; compared with control group", "description": "(§1) As for one set of a media supply chamber and a media recovery chamber included in the organ-on-a-chip of the present invention fabricated in Example 1, 200 μl of media (RPMI 1640 (Gibco) supplemented with 10% fetal bovine serum (FBS, Gibco)) was loaded in each of the chambers. The flow of media was connected between each chamber by using a pipette, and then the media was filled inside the media channel located at both sides to finally form the flow of media. Particularly, it was confirmed that a boundary of the media was formed between the media channel and the cell chamber due to surface tension, with the inverted micro-weir structure serving as a boundary.\nThen, 3×10^4 breast cancer cells (Michigan Cancer Foundation-7, MCF-7) were injected into the cell inlet by using a pipette, and the injected breast cancer cells were injected into the cell chamber by pipetting. […] Subsequently, the cells were cultured in a humidified incubator for 2 days under the conditions of 37° C. and 5% CO2.\nAfter 100 μM doxorubicin (TOCRIS) was added to the media supply chamber of the organ-on-a-chip containing breast cancer cells fabricated in Example 2-1-1, a change in breast cancer cells in the organ-on-a-chip due to doxorubicin was observed using an optical microscope, and the degree of damage to the breast cancer cells was compared and analyzed with a control group (FIG. 6). […]"}, "[2]": {"system": "liver cancer cells (HepG2)", "experiment": "Organ-on-a-chip containing liver cancer cells, doxorubicin treatment, optical microscope", "conditions": "100 μM doxorubicin in media supply chamber; 24 hours after treatment; HepG2 cultured 2 days on chip; compared with control group", "description": "As for one set of a media supply chamber and a media recovery chamber included in the organ-on-a-chip of the present invention fabricated in Example 1, 200 μl of media (Minimum Essential Media Eagle (MEM, high-glucose, Gibco) supplemented with 25 mM HEPES (4-(2-hydroxyethyl)-1-piperazineethanesulfonic acid, Gibco), 25 mM NaHCO3 (Sodium bicarbonate, Sigma-Aldrich), 10% (v/v) FBS, and P/S (100 Uml-1penicillin/100 Uml-1streptomycin, Sigma-Aldrich Co., MO)) was loaded in each of the chambers. The flow of media was connected between each chamber by using a pipette, and then the media was filled inside the media channel located at both sides to finally form the flow of media. Particularly, it was confirmed that a boundary of the media was formed between the media channel and the cell chamber due to surface tension, with the inverted micro-weir structure serving as a boundary. […]\nAfter 100 μM doxorubicin was added to the media supply chamber of the organ-on-a-chip containing liver cancer cells (HepG2) fabricated in Example 2-3-1, a change of liver cancer cells in the organ-on-a-chip due to doxorubicin was observed using an optical microscope, and the degree of damage to the liver cancer cells was compared and analyzed with a control group (FIG. 8). […]"}, "[3]": {"system": "cervical cancer cells (HeLa)", "experiment": "Organ-on-a-chip containing cervical cancer cells, doxorubicin treatment, optical microscope", "conditions": "100 μM doxorubicin in media supply chamber; 24 hours after treatment; HeLa cultured 2 days on chip; compared with control group", "description": "as §1, with “(Dulbecco Modified Eagle Medium (DMEM, Gibco)” for “(RPMI 1640 (Gibco)”, “FBS)” for “fetal bovine serum (FBS, Gibco))”\nThen, 3×10^4 cervical cancer cells (HeLa) were injected into the cell inlet by using a pipette, and the injected cervical cancer cells (HeLa) were injected into the cell chamber by pipetting. […] Subsequently, the cells were cultured in a humidified incubator for 2 days under the conditions of 37° C. and 5% CO2.\nAfter 100 μM doxorubicin was added to the media supply chamber of the organ-on-a-chip containing cervical cancer cells (HeLa) fabricated in Example 2-2-1, a change in cervical cancer cells in the organ-on-a-chip due to doxorubicin was observed using an optical microscope, and the degree of damage to the cervical cancer cells was compared and analyzed with a control group (FIG. 7). […]"}}}
{"smiles": "COc1cccc2c1C(=O)c1c(O)c3c(c(O)c1C2=O)C[C@@](O)(C(=O)CO)C[C@@H]3O[C@H]1C[C@H](N)[C@H](O)[C@H](C)O1", "note": "[doxorubicin]", "values": [{"measurement": "degree of damage to the breast cancer cells (cell death)", "setting": "[1]", "result": "most of the breast cancer cells cultured in the organ-on-a-chip were dead"}, {"measurement": "degree of damage to the liver cancer cells (cell death)", "setting": "[2]", "result": "most of the liver cancer cells cultured in the organ-on-a-chip were dead"}, {"measurement": "degree of damage to the cervical cancer cells (cell death)", "setting": "[3]", "result": "most of the cervical cancer cells cultured in the organ-on-a-chip were dead"}]}
